Assay results: patent US11161850B2, “Fused pyrazine derivatives as A2A / A2B inhibitors” (Incyte Corporation, priority 2018, dated 2021)
Read-outs that look alike come from different tables or passages of the source.

How the values were obtained:
[1] = target: Adenosine A2A (Homo sapiens (Human), UniProt P29274); test: A2A Tag-Lite HTRF assay; format: binding
Excerpt: Example C. A2A Tag-Lite® HTRF Assay

[2] = target: human adenosine A2B receptor (Homo sapiens (Human), UniProt P29275); test: Adenosine A2B Receptor Cyclic AMP GS Assay; format: cell-based; settings: HEK-293 cells expressing human A2B, agonist NECA 12 nM
human adenosine A2B receptor, sequence (P29275 whole entry): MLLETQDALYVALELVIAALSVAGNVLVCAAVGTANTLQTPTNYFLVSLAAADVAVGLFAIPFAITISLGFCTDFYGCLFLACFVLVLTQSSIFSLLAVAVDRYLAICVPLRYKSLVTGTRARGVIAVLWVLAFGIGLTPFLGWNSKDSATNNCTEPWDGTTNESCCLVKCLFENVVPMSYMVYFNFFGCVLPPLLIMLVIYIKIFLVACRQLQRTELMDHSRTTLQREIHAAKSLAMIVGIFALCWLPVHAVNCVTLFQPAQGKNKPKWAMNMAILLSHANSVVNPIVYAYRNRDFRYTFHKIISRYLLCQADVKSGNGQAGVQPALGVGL
In short: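 Stably transfected HEK-293 cells were preincubated with compound for 30 min at room temperature, then stimulated with 12 nM NECA for 60 min. cAMP accumulation was read by FRET (665/620 ratio), and EC50 was fitted from percent of control versus log compound concentration.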

[3] = read-out: A2A_Ki; Tag-Lite Adenosine A2A labeled cells, fluorescent ligand 12.5 nM
[4] = Tag-Lite Adenosine A2A labeled cells, fluorescent ligand 12.5 nM; read-out: A2A_Ki

Adenosine A2A, sequence (P29274 whole entry): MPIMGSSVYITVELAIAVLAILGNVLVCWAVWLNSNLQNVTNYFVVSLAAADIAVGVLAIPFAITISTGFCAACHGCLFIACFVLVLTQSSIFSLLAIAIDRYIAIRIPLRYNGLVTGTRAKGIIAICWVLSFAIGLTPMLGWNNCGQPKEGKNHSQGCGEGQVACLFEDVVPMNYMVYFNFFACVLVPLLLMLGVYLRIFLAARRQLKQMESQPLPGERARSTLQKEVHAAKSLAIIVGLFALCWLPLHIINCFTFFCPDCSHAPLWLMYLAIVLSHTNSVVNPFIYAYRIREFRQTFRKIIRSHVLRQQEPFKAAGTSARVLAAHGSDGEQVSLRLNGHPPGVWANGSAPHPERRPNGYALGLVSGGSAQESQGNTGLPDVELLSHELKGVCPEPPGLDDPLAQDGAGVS

SMILES | Ki [1, 3] | EC50 ([2]; read-out: A2B_cAMP_EC50) | Ki [1, 4] | EC50 ([2]; A2B_cAMP_EC50 (nM))
N#Cc1cccc(-c2nc(N)c3nc(C(O)c4ccccc4Cl)nn3c2-c2ccncn2)c1 (single isomer, unassigned) [Example 58, 3-(8-Amino-2-((2-chlorophenyl)(hydroxy)methyl)-5-(pyrimidin-4-yl)-[1,2,4]triazolo[1,5-a]pyrazin-6-yl)benzonitrile] | < 10 nM | < 10 nM | – | –
N#Cc1cccc(-c2nc(N)c3nc(C(O)c4ccccc4)nn3c2-c2ccncn2)c1 (centres unmarked) [Example 59, 3-(8-Amino-2-(hydroxy(phenyl)methyl)-5-(pyrimidin-4-yl)-[1,2,4]triazolo[1,5-a]pyrazin-6-yl)benzonitrile] | – | – | < 10 nM | 10 to 100 nM
N#Cc1cccc(-c2nc(N)c3nc(Cc4c(F)cccc4CN4CC(C#N)C4)nn3c2-c2ccncn2)c1 [Example 73, 1-(2-((8-amino-6-(3-cyanophenyl)-5-(pyrimidin-4-yl)-[1,2,4]triazolo[1,5-a]pyrazin-2-yl)methyl)-3-fluorobenzyl)azetidine-3-carbonitrile] | – | – | < 10 nM | < 10 nM
CN(C)C(=O)Cn1cc(-c2cccc(F)c2Cc2nc3c(N)nc(-c4cccc(C#N)c4F)cn3n2)cn1 [Example 114, 2-(4-(2-((8-amino-6-(3-cyano-2-fluorophenyl)-[1,2,4]triazolo[1,5-a]pyrazin-2-yl)methyl)-3-fluorophenyl)-1H-pyrazol-1-yl)-N,N-dimethylacetamide] | – | – | < 10 nM | 10 to 100 nM
N#Cc1cccc(-c2nc(N)c3nc(C(O)c4c(F)cccc4OC(F)F)nn3c2-c2ccncn2)c1 (single isomer, unassigned) [Example 98, 3-(8-amino-2-((2-(difluoromethoxy)-6-fluorophenyl)(hydroxy)methyl)-5-(pyrimidin-4-yl)-[1,2,4]triazolo[1,5-a]pyrazin-6-yl)benzonitrile] | < 10 nM | < 10 nM | – | –
N#Cc1cccc(-c2nc(N)c3nc(C(O)c4c(F)cccc4F)nn3c2-c2ccncn2)c1 (single isomer, unassigned) [Example 50, 3-(8-Amino-2-((2,6-difluorophenyl)(hydroxy)methyl)-5-(pyrimidin-4-yl)-[1,2,4]triazolo[1,5-a]pyrazin-6-yl)benzonitrile] | < 10 nM | < 10 nM | – | –
N#Cc1cccc(-c2cn3nc(Cc4c(F)cccc4-c4cnn(Cc5ccccn5)c4)nc3c(N)n2)c1F [Example 107, 3-(8-amino-2-(2-fluoro-6-(1-(pyridin-2-ylmethyl)-1H-pyrazol-4-yl)benzyl)-[1,2,4]triazolo[1,5-a]pyrazin-6-yl)-2-fluorobenzonitrile] | – | – | < 10 nM | 10 to 100 nM
Cn1cc(-c2c(-c3cccc(C#N)c3F)nc(N)c3nc(Cc4ccccn4)nn23)ccc1=O [Example 89, 3-(8-amino-5-(1-methyl-6-oxo-1,6-dihydropyridin-3-yl)-2-(pyridin-2-ylmethyl)-[1,2,4]triazolo[1,5-a]pyrazin-6-yl)-2-fluorobenzonitrile] | – | – | < 10 nM | 10 to 100 nM
N#Cc1cccc(-c2nc(N)c3nc(Cc4ccccc4CN[C@H]4CCNC4=O)nn3c2-c2ccncn2)c1 [Example 75, (S)-3-(8-amino-2-(2-(((2-oxopyrrolidin-3-yl)amino)methyl)benzyl)-5-(pyrimidin-4-yl)-[1,2,4]triazolo[1,5-a]pyrazin-6-yl)benzonitrile] | – | – | < 10 nM | < 10 nM
Cc1ncoc1-c1c(-c2cccc(C#N)c2)nc(N)c2nc(C(O)c3ccccn3)nn12 (racemic) [Example 40, 3-(8-Amino-2-(hydroxy(pyridin-2-yl)methyl)-5-(4-methyloxazol-5-yl)-[1,2,4]triazolo[1,5-a]pyrazin-6-yl)benzonitrile] | – | – | < 10 nM | < 10 nM
